This note sets out measurements from ChEMBL document CHEMBL1126122, “Non-prostanoid thromboxane A2 receptor antagonists with a dibenzoxepin ring system. 2” (J Med Chem, 1992).

SMILES strings stand for the structures.

The species named for one assay is Cavia porcellus. Description: Compound was tested for its binding affinity at TXA2/PGH2 receptor by measuring its ability to displace [3H]U-46619 from guinea pig platelets at 0.1 uM.
Settings: not given
A word on the inhibition: it is the change of the read-out against control, counted positive when it falls. Consider `COC(=O)c1ccc2c(c1)/C(=C/Cn1cnc3cc(C)c(C)cc31)c1ccccc1CO2`, for which the inhibition worked out at 31%.

As to `O=C(O)c1ccc2c(c1)/C(=C\CCNS(=O)(=O)c1ccccc1)c1ccccc1CO2`, the inhibition worked out at 50%.

For `Cc1cc2ncn(C/C=C3\c4ccccc4COc4ccc(C(=O)Nc5ccccc5C(=O)O)cc43)c2cc1C`, the inhibition turned out to be 6%.

With `Cc1nc2ccccc2n1C/C=C1\c2ccccc2COc2ccc(C(=O)O)cc21`, the inhibition stood at 4%.

In the case of `O=C(O)c1ccc2c(c1)/C(=C/Cn1nnc3ccccc31)c1ccccc1CO2`, the inhibition came to 35%.

Take `Cc1cc2ncn(C/C=C3\c4ccccc4COc4ccc(C(=O)N5CCOCC5)cc43)c2cc1C`: the inhibition is -4%.

Consider `O=C(O)c1ccc2c(c1)C(SCCn1cnc3ccccc31)c1ccccc1CO2` (stereo not drawn), for which the inhibition came to 9%.

On to `O=C(O)c1ccc2c(c1)/C(=C/Cn1cnc3cnccc31)c1ccccc1CO2`, for which the inhibition is -6%.

Tested on in another assay: not listed separately
The experiment in a line: Binding affinity at TXA2/PGH2 receptor by displacement of [3H]U-46619 from human platelets.
Settings: not given
For orientation: Loss of bound radioactivity is the signal in a displacement assay; it reports binding, not function.
By Ki is commonly meant the equilibrium dissociation constant of an inhibitor or competing ligand from its target. A lower Ki goes with a stronger hold on the target. The compound `Cc1ccc2ncn(C/C=C3\c4ccccc4COc4ccc(C(=O)O)cc43)c2c1` displayed a Ki of 0.012 µM.

The compound `O=C(O)c1ccc2c(c1)/C(=C/Cn1cnc3ccc([N+](=O)[O-])cc31)c1ccccc1CO2` registered a Ki of 0.0091 µM. The Ki values of the last two compounds are within 1.5-fold of each other.

`Cc1ccc2c(c1)ncn2C/C=C1\c2ccccc2COc2ccc(C(=O)O)cc21` came in with an inhibition constant Ki of 0.11 µM.

Regarding `Cc1cc(C)c2ncn(C/C=C3\c4ccccc4COc4ccc(C(=O)O)cc43)c2c1`, the inhibition constant Ki was 0.0076 µM.

Consider `Cc1ccc2c(ncn2C/C=C2\c3ccccc3COc3ccc(C(=O)O)cc32)c1C`, for which the Ki is 0.046 µM.

`COc1cc2ncn(C/C=C3\c4ccccc4COc4ccc(C(=O)O)cc43)c2cc1OC`: the Ki was determined as 0.0022 µM.

Compound `O=C(O)c1ccc2c(c1)/C(=C/Cn1cnc3cc4c(cc31)OCO4)c1ccccc1CO2` displayed a Ki of 0.0038 µM. Compared with the last compound, the Ki is about 1.7-fold higher.

Regarding `COc1ccc2c(c1)ncn2C/C=C1\c2ccccc2COc2ccc(C(=O)O)cc21`, the affinity corresponds to a Ki of 0.017 µM.

Compound `Cc1cccc2ncn(C/C=C3\c4ccccc4COc4ccc(C(=O)O)cc43)c12` yielded a Ki of 0.008 µM.

For `O=C(O)c1ccc2c(c1)/C(=C/Cn1cnc3ccc(Cl)cc31)c1ccccc1CO2`, the inhibition constant Ki came out at 0.019 µM.

As to `Cc1cc2ncn(C/C=C3\c4ccccc4COc4ccc(C(=O)O)cc43)c2cc1C`, affinity was put at a Ki of 0.0012 µM. This Ki lies about 16-fold lower than the previous one.

In turn, `O=C(O)c1ccc2c(c1)/C(=C/Cn1cnc3cc(F)ccc31)c1ccccc1CO2` returned a Ki of 0.015 µM.

For the compound `COc1cc(OC)c2c(c1)ncn2C/C=C1\c2ccccc2COc2ccc(C(=O)O)cc21`, the inhibitory constant (Ki) was 0.0067 µM.

Take `O=C(O)c1ccc2c(c1)/C(=C/Cn1cnc3cc(Cl)ccc31)c1ccccc1CO2`: the Ki stood at 0.011 µM.

For the compound `COc1ccc2ncn(C/C=C3\c4ccccc4COc4ccc(C(=O)O)cc43)c2c1`, the affinity, expressed as Ki, was 0.0074 µM. This Ki and that of the compound before are within 1.5-fold of each other.

`COc1cc(OC)c2ncn(C/C=C3\c4ccccc4COc4ccc(C(=O)O)cc43)c2c1`: affinity was put at a Ki of 0.0091 µM.

For the compound `Cc1cccc2c1ncn2C/C=C1\c2ccccc2COc2ccc(C(=O)O)cc21`, affinity was put at a Ki of 0.038 µM. Against the preceding compound, the Ki is about 4.2-fold higher.

`O=C(O)c1ccc2c(c1)/C(=C/Cn1cnc3cc(C(F)(F)F)ccc31)c1ccccc1CO2` gave a Ki of 0.085 µM.

In the case of `O=C(O)c1ccc2c(c1)/C(=C/Cn1cnc3ccc(C(=O)NCc4ccccc4)cc31)c1ccccc1CO2`, the inhibition constant (Ki) stood at 0.014 µM.

`O=C(O)c1ccc2c(c1)/C(=C/Cn1cnc3cc(C(=O)NCc4ccccc4)ccc31)c1ccccc1CO2` showed a Ki of 0.0074 µM.

Compound `O=C(O)c1ccc2c(c1)/C(=C/Cn1cnc3cc([N+](=O)[O-])ccc31)c1ccccc1CO2` returned an inhibition constant Ki of 0.0092 µM. This Ki and that of the compound before are within 1.5-fold of each other.

The species entered for another assay is Cavia porcellus. Description: Inhibitory effect on the U-46619 induced platelet aggregation was determined ex vivo in the guinea pig.
Settings: not given
The format is functional.
Regarding `O=C(O)c1ccc2c(c1)/C(=C\CCNS(=O)(=O)c1ccccc1)c1ccccc1CO2`, the “Inhibition of U-46619-induced platelet aggregation” value turned out to be 59.3%.

In the case of `O=C(O)Cc1ccc(CCNS(=O)(=O)c2ccc(Cl)cc2)cc1` [DALTROBAN], the Aggregation was 0%.

Take `O=C(O)c1ccc2c(c1)C(SCCc1nc3ccccc3[nH]1)c1ccccc1CO2` (stereo not drawn): the “Inhibition of U-46619-induced platelet aggregation” value was 66.3%.

For `O=C([O-])c1ccc2c(c1)/C(=C\Cn1cnc3ccccc31)c1ccccc1CO2.[Na+]`, the “Inhibition of U-46619-induced platelet aggregation” value stood at 0%.

Consider `O=C(O)c1ccc2c(c1)C(SCCNS(=O)(=O)c1ccccc1)c1ccccc1CO2` (stereo not drawn), for which the “Inhibition of U-46619-induced platelet aggregation” value came to 11.8%.

As to `O=C(O)c1ccc2c(c1)/C(=C/CNS(=O)(=O)c1ccccc1)c1ccccc1CO2`, the “Inhibition of U-46619-induced platelet aggregation” value stood at 25%.

Target in a further assay: not listed separately
Description: Binding affinity at TXA2/PGH2 receptor by measuring its ability to displace [3H]U-46619 from guinea pig platelets.
Settings: not given
`O=C(O)c1ccc2c(c1)C(SCCNS(=O)(=O)c1ccccc1)c1ccccc1CO2` (stereo not drawn) showed an inhibitory constant (Ki) of 0.032 µM.

Still in this assay, the particulars now being: Cavia porcellus; concentration not given here.
For the compound `O=C(O)c1ccc2c(c1)/C(=C/CCNS(=O)(=O)c1ccccc1)c1ccccc1CO2`, the inhibition is -6%.

Tested on in a further assay: not listed separately
The experiment in a line: Binding affinity at Thromboxane A2/ Prostaglandin H2 receptor by measuring its ability to displace [3H]U-46619 from guinea pig platelets at a compound concentration of 0.1 uM. The conditions noted are these: Cavia porcellus.
Consider `CSc1nc2ccccc2n1C/C=C1\c2ccccc2COc2ccc(C(=O)O)cc21`, for which the inhibition worked out at 11%.
